Data on two molecules can be found in PubChem BioAssay (NCI).

Some test systems named below: SNB-75 CNS; UACC-62 melanoma; CCRF-CEM leukemia; KM12 colon; K-562 leukemia; OVCAR-4 ovarian; SF-295 CNS; HOP-92 NSCLC; HL-60(TB) leukemia; NCI-H23 lung; CAKI-1 renal; OVCAR-8 ovarian; NCI-H460 lung; SF-268 CNS; HCT-116 colon; SR leukemia; UACC-257 melanoma; TK-10 renal; U251 CNS; SK-MEL-28 melanoma.
What all share (assay): NCI tumour cell line growth inhibition, 48 h

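Assay format: 96-well plates, 48-hour exposure. TGI marks complete inhibition of growth.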

For the molecule `COc1cc2cc(C(=O)N3CC(CCl)c4c3cc([N+](C)(C)Cc3ccc([N+](=O)[O-])n3C)c3ccccc43)[nH]c2c(OC)c1OC` (stereo not given), the TGI in the assay on SNB-75 CNS is 7.18 µM; in the assay with UACC-62 melanoma, 3.14 µM; in the assay with CCRF-CEM leukemia it was 18.6 µM; in the assay with KM12 colon, above 23.8 µM; in the assay on K-562 leukemia, above 100 µM; with OVCAR-4 ovarian, 6.35 µM. The TGI in the assay with SF-295 CNS was above 38.8 µM; with HOP-92 NSCLC it was 6.26 µM; with HL-60(TB) leukemia, 8.16 µM; in the assay on NCI-H23 lung, 2.49 µM; with CAKI-1 renal, above 19.9 µM; in the assay with OVCAR-8 ovarian, 8.78 µM. For the same molecule, the TGI with NCI-H460 lung was 5.41 µM; with SF-268 CNS, above 100 µM; in the assay on HCT-116 colon it was 6.92 µM; in the assay with SR leukemia, 2.29 µM; in the assay with UACC-257 melanoma, 5.4 µM; in the assay on TK-10 renal it was 14.3 µM. For the same molecule, the TGI in the assay with U251 CNS was above 100 µM; with SK-MEL-28 melanoma, 9.11 µM.
Take `Cc1cc2n([O-])cccc-2[n+](=O)c1`: the TGI in the assay with SNB-75 CNS, with UACC-62 melanoma, in the assay with CCRF-CEM leukemia, in the assay on KM12 colon, in the assay on K-562 leukemia and in the assay with OVCAR-4 ovarian was above 100 µM each time. The TGI in the assay on SF-295 CNS, in the assay with HOP-92 NSCLC, with HL-60(TB) leukemia, in the assay on NCI-H23 lung, with CAKI-1 renal and in the assay on OVCAR-8 ovarian was above 100 µM in each case. Further, the TGI in the assay on NCI-H460 lung, in the assay on SF-268 CNS, in the assay on HCT-116 colon, with SR leukemia, in the assay on UACC-257 melanoma and in the assay with TK-10 renal was above 100 µM each time. The TGI in the assay with U251 CNS and with SK-MEL-28 melanoma was above 100 µM throughout.
